Read-outs that look alike come from different tables or passages of the source.
Tests used:
RS4; 11 = settings: cited from earlier work
A549 [1] = settings: cited from earlier work
HeLa cells [2] = assay: Apoptosis assay annexin-V-FITC/PI, HeLa; format: cell-based, human; settings: for induction of apoptosis: 24 or 48 h, annexin-V-FITC/PI
HeLa = settings: cited from earlier work
HT-29 = settings: cited from earlier work
Jurkat = settings: cited from earlier work
A549 [3] = assay: Apoptosis assay annexin-V-FITC/PI, A549; format: cell-based, human; settings: A549, 24 or 48 h
HeLa cells [4] = assay: Flow cytometric analysis of cell cycle distribution; format: cell-based, human; settings: 24 h treatment, PI flow cytometry
HeLa cells [5] = assay: Western blot analysis of cell cycle and apoptosis proteins; format: cell-based, human
HeLa cells [6] = assay: Mitochondrial membrane potential; format: cell-based, human; settings: 0.1–1.0 µM, 6-48 h, JC-1
HeLa cells [7] = assay: ROS production; format: cell-based, human; settings: 1 µM, starting at 12–24 h, H2-DCFDA
[8] = tested on: panel of 7 human tumor cell lines (HeLa, A549, HT-29, MDA-MB-231, RS4; 11, Jurkat, and Kasumi-1); assay: MTT antiproliferative assay, panel of 7 human tumor cell lines; format: cell-based; settings: read-out: GI50s
tubulin = tubulin (Bos taurus, UniProt P81947+Q6B856); settings: tubulin 1 µM, [3H]colchicine 5 µM; ref [4]; cited from earlier work
bovine brain tubulin = bovine brain tubulin (Bos taurus, UniProt P81947+Q6B856); settings: read-out: Inhibition of tubulin assembly IC50 ± SD; tubulin at 10 µM; ref [4]; cited from earlier work
Sequence of bovine brain tubulin (Q6B856 whole entry): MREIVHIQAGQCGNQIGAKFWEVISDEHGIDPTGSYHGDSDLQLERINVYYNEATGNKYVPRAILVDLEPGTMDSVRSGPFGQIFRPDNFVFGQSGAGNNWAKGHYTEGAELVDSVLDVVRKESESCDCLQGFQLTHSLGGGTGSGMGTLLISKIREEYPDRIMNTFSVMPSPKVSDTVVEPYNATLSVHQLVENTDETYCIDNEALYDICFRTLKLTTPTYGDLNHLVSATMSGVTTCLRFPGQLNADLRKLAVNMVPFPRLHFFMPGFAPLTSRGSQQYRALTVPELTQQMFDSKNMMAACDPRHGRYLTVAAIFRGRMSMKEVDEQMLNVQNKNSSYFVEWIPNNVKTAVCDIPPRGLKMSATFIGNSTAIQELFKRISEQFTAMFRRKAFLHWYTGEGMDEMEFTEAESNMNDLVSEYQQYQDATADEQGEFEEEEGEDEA
Sequence of bovine brain tubulin (P81947 whole entry): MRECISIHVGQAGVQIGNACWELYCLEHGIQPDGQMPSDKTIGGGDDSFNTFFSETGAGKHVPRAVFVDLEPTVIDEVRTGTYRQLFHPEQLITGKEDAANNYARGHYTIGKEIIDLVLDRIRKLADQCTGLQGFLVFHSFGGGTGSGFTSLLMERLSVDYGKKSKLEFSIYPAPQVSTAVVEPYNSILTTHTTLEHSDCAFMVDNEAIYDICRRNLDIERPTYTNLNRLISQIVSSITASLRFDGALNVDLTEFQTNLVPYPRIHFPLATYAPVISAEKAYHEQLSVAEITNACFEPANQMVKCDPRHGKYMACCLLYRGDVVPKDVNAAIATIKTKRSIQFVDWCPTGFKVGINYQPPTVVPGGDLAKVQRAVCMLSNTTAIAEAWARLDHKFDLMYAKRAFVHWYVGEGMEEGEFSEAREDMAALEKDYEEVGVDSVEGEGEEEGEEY

Sequence of tubulin (Q6B856 whole entry): as the sequence (Q6B856 whole entry) above
Sequence of tubulin (P81947 whole entry): as the sequence (P81947 whole entry) above

Q: With COc1ccc(/C=C\c2cc(OC)c(OC)c(OC)c2)cc1O [CA-4, combretastatin A-4] as the compound, how does the GI50 (RS4; 11; ref [8] and [20]) read?
A: 0.0008 ± 0.0002 µM

Q: And the GI50 (A549 [1]; ref [8] and [20])?
A: 0.18 ± 0.05 µM

Q: What about the apoptotic response (HeLa cells [2]; 0.1 µM) of the same compound?
A: strong apoptotic response

Q: What about the GI50 (HeLa; ref [8] and [20]) of the same compound?
A: 0.004 ± 0.001 µM

Q: And the GI50 (HT-29; ref [8] and [20])?
A: 3.1 ± 0.1 µM

Q: What about the GI50 (Jurkat; ref [8] and [20]) of the same compound?
A: 0.005 ± 0.0006 µM

Q: For CCn1ccc2c3c(=O)cc(-c4cccc5ccccc45)[nH]c3ccc21 [Compound 21, 3-ethyl-7-(naphthalen-1-yl)-3H-pyrrolo[3,2-f]quinolin-9(6H)-one], which induction of apoptosis (HeLa cells [2]) is on record?
A: induced apoptosis in a time and concentration dependent manner

Q: And the induction of apoptosis (A549 [3])?
A: induced apoptosis in a time and concentration dependent manner

Q: What about the “effect on cell cycle progression” value (HeLa cells [4]) of the same compound?
A: induced a G2/M arrest

Q: With CCn1ccc2c3c(=O)cc(-c4ccc5c(c4)CCCC5)[nH]c3ccc21 [Compound 23, 3-ethyl-7-(1,2,3,4-tetrahydronaphthalen-6-yl)-3H-pyrrolo[3,2-f]quinolin-9(6H)-one] as the compound, how does the induction of apoptosis (HeLa cells [2]) read?
A: induced apoptosis in a time and concentration dependent manner

Q: And the induction of apoptosis (A549 [3])?
A: induced apoptosis in a time and concentration dependent manner

Q: And the “effect on cell cycle progression” value (HeLa cells [4])?
A: induced a G2/M arrest

Q: Which results are given for CCn1ccc2c3c(=O)cc(-c4ccc5c(c4)OCO5)[nH]c3ccc21 [Compound 24, 7-(benzo[d][1,3]dioxol-5-yl)-3-ethyl-3H-pyrrolo[3,2-f]quinolin-9(6H)-one]?
A: induction of apoptosis (HeLa cells [2]): induced apoptosis in a time and concentration dependent manner; induction of apoptosis (A549 [3]): induced apoptosis in a time and concentration dependent manner; expression of anti-apoptotic proteins Bcl-2 and Mcl-1 (HeLa cells [5]; immunoblot, 50 nM): reduced the expression; PARP cleavage (HeLa cells [5]; western blot): concentration and time-dependent cleavage of poly (ADP-Ribose) polymerase (PARP); cyclin B1 expression (HeLa cells [5]; western blot, 24 and 48 h): increase in cyclin B1 expression; phosphatase cdc25c expression (HeLa cells [5]; western blot, 24 h): reduction in the expression of phosphatase cdc25c; phosphorylated cdc2 kinase (HeLa cells [5]; western blot, in particular after 48 h): decrease of the phosphorylated form of cdc2 kinase; mitochondrial transmembrane potential (Δψmt) (HeLa cells [6]): time-dependent increase in the percentage of cells with low Δψmt; ROS production (HeLa cells [7]): induced significant production of ROS; effect on cell cycle progression (HeLa cells [4]): induced a G2/M arrest

Q: Which IC50 [8] does the source give for O=C1C=C(c2ccccc2)Nc2cccc3ccn1c23 [Compound 30, (Z)-2-phenyl-[1,4]diazepino[3,2,1-hi]indol-4(1H)-one] here?
A: > 10 µM

Q: Which GI50 (RS4; 11; ref [4] and [8]) does the source give for CCn1ccc2c3c(=O)cc(-c4ccccc4)[nH]c3ccc21 [Compound 31, 3-ethyl-7-phenyl-3H-pyrrolo[3-2-f] quinolin-9-one] here?
A: 0.002 ± 0.0003 µM

Q: What about the GI50 (A549 [1]; ref [4] and [8]) of the same compound?
A: 0.032 ± 0.0015 µM

Q: And the “Inhibition of colchicine binding % Inhibition ± SD” value (tubulin)?
A: 73 ± 0.7%

Q: And the GI50 (HeLa; ref [4] and [8])?
A: 0.011 ± 0.008 µM

Q: What about the GI50 (HT-29; ref [4] and [8]) of the same compound?
A: 0.032 ± 0.0012 µM

Q: What about the IC50 (bovine brain tubulin) of the same compound?
A: 0.57 ± 0.02 µM

Q: And the GI50 (Jurkat; ref [4] and [8])?
A: 0.0005 ± 0.0002 µM

Reference: paper PMC5798451 (European journal of medicinal chemistry, 2017)
